The results in this text go back to US12617798B2, “Imidazopyrazne derivatives” (Hoffmann-La Roche Inc., priority 2020, dated 2026).

Structures are written as SMILES. Structures can show the parent of a compound that is named as a salt.

The test system of assay [1] is Acinetobacter baumannii ATCC17961. Briefly: Antimicrobial susceptibility testing, 90% growth inhibitory concentration (IC90) determination. As to conditions: Iso-Sensitest broth, OD 600 nm over 16 h, 35±2° C., read-out: ATCC 17961 IC90. The class given is cell-based. On the procedure: (§1) 90% Growth Inhibitory Concentration (IC90) Determination The in vitro antimicrobial activity of the compounds was determined according to the following procedure: The assay used a 10-points Iso-Sensitest broth medium to measure quantitatively the in vitro activity of the compounds against Acinetobacter baumannii ATCC17961 and Pseudomonas aeruginosa ATCC27853. Stock compounds in DMSO were serially twofold diluted (e.g. range from 50 to 0.097 μM final concentration) in 384 wells microtiter plates and inoculated with 49 μl the bacterial suspension in Iso-Sensitest medium to have a final cell concentration of ˜5×10^(5) CFU/ml in a final volume/well of 50 ul/well. Microtiter plates were incubated at 35±2° C. Bacterial cell growth was determined with the measurement of optical density at λ=600 nm each 20 minutes over a time course of 16 h. Growth inhibition was calculated during the logarithmic growth of the bacterial cells with determination of the concentration inhibiting 50% (IC50) and 90% (IC90) of the growth. Table 1 provides the 90% growth inhibitory concentrations (IC90) in micromoles per liter of the compounds of present invention obtained against the strain Acinetobacter baumannii ATCC17961.

Assay [2] has as its system Pseudomonas aeruginosa ATCC27853. Described as above. The following applies: Iso-Sensitest broth, OD 600 nm over 16 h, 35±2° C., read-out: ATCC 27853 IC90. Type of assay: cell-based. On the procedure:
as §1, with “Table 2” for “Table 1”, “strain Pseudomonas aeruginosa ATCC27853.” for “strain Acinetobacter baumannii ATCC17961.”

The term IC90 denotes the concentration at which the effect reaches the 90% level. As to `CCc1cc(Nc2nccn3c(-c4ccc(-c5c[nH]nc5C)c(F)c4F)cnc23)ccc1C(=O)NCC1CCN(CC2CNC2)CC1` [Example A1, N-[[1-(Azetidin-3-ylmethyl)-4-piperidyl]methyl]-4-[[3-[2,3-difluoro-4-(3-methyl-1H-pyrazol-4-yl)phenyl]imidazo[1,2-a]pyrazin-8-yl]amino]-2-ethyl-benzamide; formic acid], the concentration for an effect of 90% (IC90) in assay [1] is 47 nM; in assay [2], 160 nM.

Turning to `CCc1cc(Nc2nccn3c(-c4ccc(-c5c[nH]nc5C)c(F)c4F)cnc23)ccc1C(=O)NCC1CC[N+](C)(CC2CNC2)CC1` (stereo not shown) [Example A2, N-[[1-(Azetidin-3-ylmethyl)-1-methyl-piperidin-1-ium-4-yl]methyl]-4-[[3-[2,3-difluoro-4-(3-methyl-1H-pyrazol-4-yl)phenyl]imidazo[1,2-a]pyrazin-8-yl]amino]-2-ethyl-benzamide; formic acid; formate], the IC90 in assay [1] amounted to 50 nM; in assay [2], 98 nM.

With `CCc1cc(Nc2nccn3c(-c4ccc(-c5c[nH]nc5C)c(F)c4F)cnc23)ccc1C(=O)NCC1CCN(CC(=O)O)CC1` [Example A3, 2-[4-[[[4-[[3-[2,3-difluoro-4-(3-methyl-1H-pyrazol-4-yl)phenyl]imidazo[1,2-a]pyrazin-8-yl]amino]-2-ethyl-benzoyl]amino]methyl]-1-piperidyl]acetic acid], the IC90 in assay [1] was 340 nM; in assay [2], 1800 nM.

For `CCc1cc(Nc2nccn3c(-c4ccc(-c5c[nH]nc5C)c(F)c4F)cnc23)ccc1C(=O)NCC1CC[N+](C)(CC(=O)O)CC1` (stereo not shown) [Example A4, 2-[4-[[[4-[[3-[2,3-difluoro-4-(3-methyl-1H-pyrazol-4-yl)phenyl]imidazo[1,2-a]pyrazin-8-yl]amino]-2-ethyl-benzoyl]amino]methyl]-1-methyl-piperidin-1-ium-1-yl]acetic acid; formate], the values for the IC90 in assay [1] and in assay [2] were 310 nM and 1200 nM, respectively.

With `CCc1cc(Nc2nccn3c(-c4ccc(-c5c[nH]nc5C)c(F)c4F)cnc23)ccc1C(=O)NCC1CC[N+](CC(=O)O)(CC2CNC2)CC1` (stereo not shown) [Example A5, 2-[1-(azetidin-3-ylmethyl)-4-[[[4-[[3-[2,3-difluoro-4-(3-methyl-1H-pyrazol-4-yl)phenyl]imidazo[1,2-a]pyrazin-8-yl]amino]-2-ethyl-benzoyl]amino]methyl]piperidin-1-ium-1-yl]acetic acid; formic acid; formate], the values for the IC90 in assay [1] and in assay [2] were 150 nM and 240 nM, respectively.

Regarding `CCc1cc(Nc2nccn3c(-c4ccc(-c5c[nH]nc5C(F)(F)F)c(F)c4F)cnc23)ccc1C(=O)NCC1CCN(CC2CNC2)CC1` [Example A12, N-[[1-(azetidin-3-ylmethyl)-4-piperidyl]methyl]-4-[[3-[2,3-difluoro-4-[3-(trifluoromethyl)-1H-pyrazol-4-yl]phenyl]imidazo[1,2-a]pyrazin-8-yl]amino]-2-ethyl-benzamide; formic acid], the IC90 in assay [1] was found to be 280 nM; in assay [2], 430 nM.

Consider `CCc1cc(Nc2nccn3c(-c4ccc(-c5c[nH]nc5C)nc4F)cnc23)ccc1C(=O)NCC1CC[N+](C)(CC2CNC2)CC1` (stereo not shown) [Example B1, N-[[1-(Azetidin-3-ylmethyl)-1-methyl-piperidin-1-ium-4-yl]methyl]-2-ethyl-4-[[3-[2-fluoro-6-(3-methyl-1H-pyrazol-4-yl)-3-pyridyl]imidazo[1,2-a]pyrazin-8-yl]amino]benzamide; formic acid; formate], for which the IC90 in assay [1] amounted to 1100 nM; in assay [2], 120 nM.

As to `CCc1cc(Nc2nccn3c(-c4ccc(-c5c(C)n[nH]c5C)nc4F)cnc23)ccc1C(=O)NCC1CC[N+](C)(CC2CNC2)CC1` (stereo not shown) [Example B4, N-[[1-(azetidin-3-ylmethyl)-1-methyl-piperidin-1-ium-4-yl]methyl]-4-[[3-[6-(3,5-dimethyl-1H-pyrazol-4-yl)-2-fluoro-3-pyridyl]imidazo[1,2-a]pyrazin-8-yl]amino]-2-ethyl-benzamide; formic acid; formate], the IC90 in assay [1] is 430 nM; in assay [2], 98 nM.

Take `CCc1cc(Nc2nccn3c(-c4ccc(-c5c[nH]nc5C)cc4)cnc23)ccc1C(=O)NCC1CC[N+](C)(CC2CNC2)CC1` (stereo not shown) [Example B5, N-[[1-(azetidin-3-ylmethyl)-1-methyl-piperidin-1-ium-4-yl]methyl]-2-ethyl-4-[[3-[4-(3-methyl-1H-pyrazol-4-yl)phenyl]imidazo[1,2-a]pyrazin-8-yl]amino]benzamide; formic acid; formate]: the IC90 came out at 100 nM in assay [1] and 98 nM in assay [2].

With `CCc1cc(Nc2nccn3c(-c4ccc(-c5c[nH]nc5C(F)(F)F)c(F)c4F)cnc23)ccc1C(=O)NCC1CC[N+](C)(CC2CNC2)CC1` (stereo not shown) [Example B6, N-[[1-(azetidin-3-ylmethyl)-1-methyl-piperidin-1-ium-4-yl]methyl]-4-[[3-[2,3-difluoro-4-[3-(trifluoromethyl)-1H-pyrazol-4-yl]phenyl]imidazo[1,2-a]pyrazin-8-yl]amino]-2-ethyl-benzamide; formic acid; formate], the 90% effect concentration (IC90) worked out at 160 nM in assay [1] and 250 nM in assay [2].

For `CCc1cc(Nc2nccn3c(-c4ccc(-c5cn(CCOC)nc5C)c(F)c4F)cnc23)ccc1C(=O)NCC1CC[N+](C)(C)CC1` [Example C1, 4-[[3-[2,3-Difluoro-4-[1-(2-methoxyethyl)-3-methyl-pyrazol-4-yl]phenyl]imidazo[1,2-a]pyrazin-8-yl]amino]-N-[(1,1-dimethylpiperidin-1-ium-4-yl)methyl]-2-ethyl-benzamide; formate], the IC90 was determined as 270 nM in assay [1] and 1000 nM in assay [2].

Regarding `CCc1cc(Nc2nccn3c(-c4ccc(-c5cn(CCOC)nc5C)c(F)c4F)cnc23)ccc1C(=O)NCC1CC[N+](C)(CC(N)=O)CC1` (stereo not shown) [Example C2, N-[[1-(2-amino-2-oxo-ethyl)-1-methyl - piperidin-1-ium-4-yl]methyl]-4-[[3-[2,3-difluoro-4-[1-(2-methoxyethyl)-3-methyl-pyrazol-4-yl]phenyl]imidazo[1,2-a]pyrazin-8-yl]amino]-2-ethyl-benzamide; formate], the IC90 stood at 290 nM in assay [1] and 1200 nM in assay [2].

On to `CCc1cc(Nc2nccn3c(-c4ccc(-c5cn(CCOC)nc5C)c(F)c4F)cnc23)ccc1C(=O)NCC1CC[N+](C)(CCO)CC1` (stereo not shown) [Example C3, 4-[[3-[2,3-difluoro-4-[1-(2-methoxyethyl)-3-methyl-pyrazol-4-yl]phenyl]imidazo[1,2-a]pyrazin-8-yl]amino]-2-ethyl-N-[[1-(2-hydroxyethyl)-1-methyl-piperidin-1-ium-4-yl]methyl]benzamide; formate], for which the IC90 is 430 nM in assay [1] and 1600 nM in assay [2].

As for `CCc1cc(Nc2nccn3c(-c4ccc(-c5cn(CCOC)nc5C)c(F)c4F)cnc23)ccc1C(=O)NCC1CC[N+](C)(CC2CNC2)CC1` (stereo not shown) [Example C4, N-[[1-(azetidin-3-ylmethyl)-1-methyl-piperidin-1-ium-4-yl]methyl]-4-[[3-[2,3-difluoro-4-[1-(2-methoxyethyl)-3-methyl-pyrazol-4-yl]phenyl]imidazo[1,2-a]pyrazin-8-yl]amino]-2-ethyl-benzamide; formic acid; formate], the figures for the IC90 in assay [1] and in assay [2] were 460 nM and 410 nM, respectively.
